Assay results taken from US20240041042A1, “1-(PYRIDYL)-5-AZINYLPYRAZOLE DERIVATIVES, AND THEIR USE FOR CONTROL OF UNDESIRED PLANT GROWTH” (Bayer Aktiengesellschaft, priority 2020, published 2024).
Like-named read-outs stand apart in the source and are kept apart here.

Tests used:
Type in all cases: in vivo
[1] = test system: Amaranthus retroflexus (AMARE); assay: Post-emergence herbicidal action against AMARE
Outline: (§1)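 Doses of 320 g/ha or lower, suffixes a, b and c marking different dosages, were applied post-emergence at the one-leaf stage in 600 l/ha water with 0.5% additive. Damage was assessed visually after about 3 weeks in the greenhouse.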

[2] = test system: Triticum aestivum (TRZAS); settings: crop plant compatibility, effect vs untreated controls
Outline: (§2)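 Visual rating (% effect vs. untreated plants; 100% = plant death) made about 3 weeks after treatment. Plants had been sprayed at one-leaf stage, 2–3 weeks post-sowing, with aqueous WP/EC preparations containing 0.5% additive, 600 l/ha water volume; a, b, c mark dose levels.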

Oryza sativa (ORYSA) [3] = settings: crop plant compatibility
Outline: as §2

Setaria viridis (SETVI) [4] = assay: Pre-emergence herbicidal action against SETVI; settings: dosage 320 g/ha
Outline: (§3)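 Application rates ran to 320 g/ha or lower, with several dosages tested on the same weeds. The compound, as wettable powder or emulsion concentrate, is sprayed pre-emergence onto soil over sown seeds; greenhouse growth follows, and effect is rated visually after roughly 3 weeks.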

Viola tricolor (VIOTR) [5] = assay: Pre-emergence herbicidal action against VIOTR
Outline: as §3

[6] = test system: Abutilon theophrasti (ABUTH); assay: Post-emergence herbicidal action against ABUTH; settings: visual rating about 3 weeks after treatment vs untreated controls (100% = plants have died, 0% = like control plants)
Outline: as §1

[7] = test system: Alopecurus myosuroides (ALOMY); assay: Pre-emergence herbicidal action against ALOMY; settings: 320 g/ha; scored visually after about 3 weeks; 100% = plants have died
Outline: as §3

[8] = test system: Triticum aestivum (TRZAS); settings: pre-emergence, 80 g/ha, crop plant compatibility, in comparison to untreated controls
Outline: (§4)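 Crop injury rated visually in percent against untreated plants roughly 3 weeks after treatment (0% no effect, 100% plants dead). Compounds, as WP or EC with 0.5% additive in 600 l/ha water, were applied to the covering soil right after sowing; greenhouse growth. Suffixes a, b, c denote different dosages.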

Glycine max (GLXMA) = settings: pre-emergence, 80 g/ha, crop plant compatibility, in comparison to untreated controls
Outline: as §4

Zea mays (ZEAMX) [9] = settings: pre-emergence, crop plant compatibility, in comparison to untreated controls
Outline: as §4

Oryza sativa (ORYSA) [10] = settings: pre-emergence, crop plant compatibility, in comparison to untreated controls
Outline: as §4

Avena fatua (AVEFA) [11] = assay: Post-emergence herbicidal action against AVEFA; settings: 320 g/ha, visual rating about 3 weeks after treatment
Outline: as §1

[12] = test system: Amaranthus retroflexus (AMARE); assay: Pre-emergence herbicidal action against AMARE; settings: visual scoring after about 3 weeks vs untreated controls
Outline: as §3

[13] = test system: Polygonum convolvulus (POLCO); assay: Post-emergence herbicidal action against POLCO
Outline: as §1

[14] = test system: Echinochloa crus-galli (ECHCG); assay: Post-emergence herbicidal action against ECHCG
Outline: as §1

Lolium rigidum (LOLRI) [15] = assay: Pre-emergence herbicidal action against LOLRI; settings: dosage 320 g/ha
Outline: as §3

[16] = test system: Abutilon theophrasti (ABUTH); assay: Pre-emergence herbicidal action against ABUTH; settings: Dosage column 320 g/ha (title prints 3200 g/ha); scored visually after about 3 weeks; 100% = plants have died
Outline: as §3

Viola tricolor (VIOTR) [17] = assay: Post-emergence herbicidal action against VIOTR
Outline: as §1

[18] = test system: Pharbitis purpurea (PHBPU); assay: Post-emergence herbicidal action against PHBPU
Outline: as §1

[19] = test system: Matricaria inodora (MATIN); assay: Pre-emergence herbicidal action against MATIN
Outline: as §3

[20] = test system: Verconica persica (VERPE); assay: Post-emergence herbicidal action against VERPE; settings: 320 g/ha, VERPE
Outline: as §1

[21] = test system: Polygonum convolvulus (POLCO); assay: Pre-emergence herbicidal action against POLCO
Outline: as §3

Avena fatua (AVEFA) [22] = assay: Pre-emergence herbicidal action against AVEFA; settings: 320 g/ha, visual scoring after about 3 weeks vs untreated controls
Outline: as §3

Setaria viridis (SETVI) [23] = assay: Post-emergence herbicidal action against SETVI
Outline: as §1

Lolium rigidum (LOLRI) [24] = assay: Post-emergence herbicidal action against LOLRI; settings: dosage 320 g/ha
Outline: as §1

[25] = test system: Matricaria inodora (MATIN); assay: Post-emergence herbicidal action against MATIN
Outline: as §1

[26] = test system: Echinochloa crus-galli (ECHCG); assay: Pre-emergence herbicidal action against ECHCG; settings: dosage 320 g/ha
Outline: as §3

[27] = test system: Digitaria sanguinalis (DIGSA); assay: Post-emergence herbicidal action against DIGSA; settings: 320 g/ha, visual rating about 3 weeks after treatment
Outline: as §1

[28] = test system: Digitaria sanguinalis (DIGSA); assay: Pre-emergence herbicidal action against DIGSA; settings: dosage 320 g/ha
Outline: as §3

Zea mays (ZEAMX) [29] = settings: crop plant compatibility, 80 g/ha, effect vs untreated controls
Outline: as §2

[30] = test system: Alopecurus myosuroides (ALOMY); assay: Post-emergence herbicidal action against ALOMY; settings: 320 g/ha, visual rating about 3 weeks after treatment vs untreated controls (100% = plants have died, 0% = like control plants)
Outline: as §1

Brassica napus (BRSNW) = settings: 80 g/ha, crop plant compatibility, in comparison to untreated controls
Outline: as §4

[31] = 80 g/ha, visual rating about 3 weeks after treatment vs untreated controls (100% = plants have died, 0% = like control plants)
[32] = 80 g/ha, effect in comparison to untreated controls
[33] = 320 g/ha, visual rating about 3 weeks after treatment
[34] = 320 g/ha, effect in comparison to untreated controls

Row | Compound | Post-emergence action against AMARE in % [1, 31] [%] | Post-emergence action against ORYSA in % (Oryza sativa (ORYSA) [3]; [32]) [%] | Pre-emergence action against SETVI in % (Setaria viridis (SETVI) [4]) [%] | Pre-emergence action against VIOTR in % (Viola tricolor (VIOTR) [5]; 320 g/ha, Viola tricolor) [%] | Post-emergence action against ABUTH in % ([6]; 80 g/ha) [%] | Pre-emergence action against ALOMY [7] [%] | Pre-emergence action against TRZAS in % [8] [%] | Pre-emergence action against GLXMA in % (Glycine max (GLXMA)) [%] | Pre-emergence action against ZEAMX in % (Zea mays (ZEAMX) [9]; 80 g/ha) [%] | Pre-emergence action against ORYSA in % (Oryza sativa (ORYSA) [10]; 80 g/ha) [%] | Post-emergence action against AVEFA in % (Avena fatua (AVEFA) [11]) [%] | Pre-emergence action against AMARE in % ([12]; 320 g/ha) [%] | Post-emergence action against POLCO in % ([13]; dosage 320 g/ha) [%] | Post-emergence action against AMARE in % [1, 33] [%] | Post-emergence action against ECHCG in % ([14]; dosage 320 g/ha) [%] | Post-emergence action against ORYSA in % (Oryza sativa (ORYSA) [3]; [34]) [%] | Pre-emergence action against LOLRI in % (Lolium rigidum (LOLRI) [15]) [%] | Pre-emergence action against ABUTH [16] [%] | Post-emergence action against VIOTR in % (Viola tricolor (VIOTR) [17]; 80 g/ha) [%] | Post-emergence action against VIOTR in % (Viola tricolor (VIOTR) [17]; 320 g/ha) [%] | further results
1 | CCOC(=O)COc1nn(-c2ccccn2)c(-c2ccc(F)nc2)c1C1CC1 [Example I-78] | 80 | 20 | 80 | 80 | 80 | 90 | 0 | 0 | 0 | 0 | – | – | – | – | – | – | – | – | – | – | Post-emergence action against TRZAS in % ([2]; 20 g/ha): 0%; Post-emergence action against TRZAS in % ([2]; 80 g/ha): 20%; Post-emergence action against ORYSA in % (Oryza sativa (ORYSA) [3]; 20 g/ha, effect vs untreated controls): 0%; Pre-emergence action against ZEAMX in % (Zea mays (ZEAMX) [9]; 320 g/ha): 0%; Pre-emergence action against ORYSA in % (Oryza sativa (ORYSA) [10]; 320 g/ha): 0%
2 | O=C(COc1nn(-c2ccccn2)c(-c2ccc(F)nc2)c1Br)NS(=O)(=O)CC(F)(F)F [Example I-60] | 80 | 0 | 80 | 80 | – | – | 0 | 20 | 0 | 0 | 90 | 90 | 80 | 80 | 80 | 0 | 80 | 80 | – | – | –
3 | CCOC(=O)CSc1nn(-c2ccccn2)c(-c2cncc(F)c2)c1Cl [Example I-183] | 90 | – | 90 | 100 | 80 | 80 | 0 | 0 | – | – | 90 | 100 | 90 | 90 | 90 | – | 90 | 80 | 90 | 90 | Post-emergence action against PHBPU in % ([18]; dosage 80 g/ha): 80%; Post-emergence action against PHBPU in % ([18]; dosage 320 g/ha): 90%; Pre-emergence action against AMARE in % ([12]; 80 g/ha): 80%; Pre-emergence action against MATIN in % ([19]; dosage 80 g/ha): 90%; Pre-emergence action against MATIN in % ([19]; dosage 320 g/ha): 90%; Post-emergence action against VERPE in % [20]: 90%; Pre-emergence action against POLCO in % ([21]; dosage 80 g/ha): 80%; Pre-emergence action against POLCO in % ([21]; dosage 320 g/ha): 90%; Pre-emergence action against AVEFA in % (Avena fatua (AVEFA) [22]): 80%; Post-emergence action against ECHCG in % ([14]; dosage 80 g/ha): 90%; Post-emergence action against SETVI in % (Setaria viridis (SETVI) [23]; dosage 80 g/ha): 90%; Post-emergence action against SETVI in % (Setaria viridis (SETVI) [23]; dosage 320 g/ha): 90%; Post-emergence action against LOLRI in % (Lolium rigidum (LOLRI) [24]): 90%; Pre-emergence action against VIOTR in % (Viola tricolor (VIOTR) [5]; dosage 80 g/ha): 80%; Post-emergence action against ABUTH in % ([6]; 320 g/ha): 80%; Post-emergence action against MATIN in % ([25]; dosage 80 g/ha): 80%; Post-emergence action against MATIN in % ([25]; dosage 320 g/ha): 80%; Pre-emergence action against ECHCG in % [26]: 100%
4 | COC(=O)[C@@H](C)Oc1nn(-c2ccccn2)c(-c2ccc(Cl)nc2)c1Br [Example I-242] | – | 0 | – | 100 | – | 80 | – | 0 | 0 | – | 80 | 100 | 80 | 80 | – | 0 | 90 | – | 80 | 80 | Post-emergence action against PHBPU in % ([18]; dosage 80 g/ha): 80%; Post-emergence action against PHBPU in % ([18]; dosage 320 g/ha): 80%; Post-emergence action against POLCO in % ([13]; dosage 80 g/ha): 80%; Post-emergence action against DIGSA in % [27]: 80%; Pre-emergence action against POLCO in % ([21]; dosage 320 g/ha): 80%; Pre-emergence action against DIGSA in % [28]: 90%; Post-emergence action against ZEAMX in % (Zea mays (ZEAMX) [29]): 10%; Post-emergence action against LOLRI in % (Lolium rigidum (LOLRI) [24]): 80%; Post-emergence action against ALOMY in % [30]: 80%; Pre-emergence action against BRSNW in % (Brassica napus (BRSNW)): 20%
